In EP2033955A1, “Urea derivatives of 1H-pyrazol-4-carboxylic acid with neutrophil chemotaxis inhibiting activity” (Universita' Degli Studi Di Genova, priority 2007, dated 2009):

Key:
[1] = tested on: human peripheral blood neutrophils; assay: Inhibition of IL8 (CXCL8)-induced neutrophil chemotaxis (48-well microchemotaxis chamber, leading-front method); assay type: cell-based; conditions: CXCL8 10^-8 M in lower compartment, neutrophils pre-incubated ten minutes with compound, means of six experiments, read-out: Inhibition of the migration of neutrophils induced by IL8 CI50
Experimental: (§1) The inhibitory activity of the compounds according to the present invention towards fMLP- or CXCL8-induced chemotaxiswas evaluated following methods described in the literature (Giordano, C. et al., Bioorg. Med. Chem. 2006, 14, 2642 and documents cited in such article).
(§2) Cells were obtained from blood of healthy subjects and human peripheral blood neutrophils were purified by using the standard techniques of dextran sedimentation (Pharmacia, Uppsala, Sweden), centrifugation on Ficoll-Paque (Pharmacia) and hypotonic lysis of contaminating red blood cells. The cells were washed twice and resuspended in Krebs-Ringer (KRPG) phosphate, pH 7.4, at a final concentration of 50 x 10^6 cells/ml and kept at room temperature until used. The neutrophils were 98-100% viable, as determined using the Trypan blue exclusion test.
(§3) The f-MLP-OMe and the compounds to be tested (10-^2M) were dissolved in dimethylsulfoxide (DMSO) while CXCL8 (10^-5 M) was dissolved in water. All solutions were diluted in KRPG before use to obtain the final concentration required by the experimental protocol.
(§4) A random locomotion test was carried out with a 48-well microchemotaxis chamber (Bio Probe, Milan) and migration into the filter was evaluated by the leading-front method (Gennari, C. et al, Eur. J. Org. Chem. (1998), p. 945) by estimating the distance in micrometres which the leading edge of the cell migrated. The actual control random movement is 35 ± 3 µm SE of six separate experiments carried out in duplicate.
(§5) The directional movement or chemotaxis was measured with the same chamber used for the random locomotion, adding fMLP-OMe 10^-9 M or CXCL8 10^-8 M in the lower compartment.
(§6) Each compound to be tested was added in the upper compartment of the chemotaxis chamber, diluted at concentrations varying from 10^-15 to 10^-5 M with KRPG containing 1 mg/ml of bovine serum albumin (BSA; Orha Behringwerke, Germany).
(§7) The neutrophils were pre-incubated with the compounds to be tested ten minutes before the functional test. The data was expressed in terms of chemotactic index (C.I.), which is the ratio (migration towards test attractant - migration towards the buffer)/migration towards the buffer.
(§8) The antagonism was measured as C.I. in the absence (100%) and in the presence of the compound to be tested at different concentrations. CI50 values were calculated from the sigmoid dose-response curve by a nonlinear regression analysis (Graph Pad Prism, San Diego, USA).
(§9) The values are means of six separate experiments carried out twice. The standard errors are in the range of 0.02-0.09 C.I.

[2] = tested on: human peripheral blood neutrophils; assay: Inhibition of fMLP-induced neutrophil chemotaxis (48-well microchemotaxis chamber, leading-front method); assay type: cell-based; conditions: for IC50: read-out: Inhibition of the migration of neutrophils induced by fMLP CI50; for Percentage in brackets after the fMLP CI50 bound: meaning of the percentage not explained
Experimental: as §1, §2, §3, §4, §5, §6, §7, §8, §9

[3] = Homo sapiens, Neutrophil, fMLP-OMe 10^-9 M in lower compartment, neutrophils pre-incubated ten minutes with compound, means of six experiments
[4] = Homo sapiens, Neutrophil, fMLP-OMe 10^-9 M, unit µM, highest tested concentration 10^-5 M
[5] = fMLP-OMe 10^-9 M in lower compartment, neutrophils pre-incubated ten minutes with compound, means of six experiments

| IC50 ([1]; Homo sapiens, Neutrophil) | IC50 [2, 3] | SMILES | other results |
| --- | --- | --- | --- |
| 0.0016 ± 0.0002 nM | 0.12 ± 0.012 µM | CCOC(=O)c1cnn(CC(O)CC)c1NC(=O)Nc1ccccc1F (centres unmarked) [Il, 1-(2-hydroxybutyl)-5-[3-(2-fluorophenyl)ureido]-1H-pyrazole-4-carboxylic acid ethyl ester] | – |
| 9.6 ± 1 nM | 0.012 ± 0.0012 µM | CCOC(=O)c1cnn(CC(O)CC)c1NC(=O)Nc1cccc2ccccc12 (centres unmarked) [Io, 1-(2-hydroxybutyl)-5-[3-(1-naphthyl)ureido]-1H-pyrazole-4-carboxylic acid ethyl ester] | – |
| 1.9 ± 0.13 nM | 0.0032 ± 0.0004 µM | CCOC(=O)c1cnn(CC(O)CC)c1NC(=O)Nc1ccc(F)cc1 (centres unmarked) [In, 1-(2-hydroxybutyl)-5-[3-(4-fluorophenyl)ureido]-1H-pyrazole-4-carboxylic acid ethyl ester] | – |
| – | 0.1 ± 0.0103 µM | CCOC(=O)c1cnn(CC(C)O)c1NC(=O)Nc1ccccc1F (centres unmarked) [Ie, 1-(2-hydroxypropyl)-5-[3-(2-fluorophenyl)ureido]-1H-pyrazole-4-carboxylic acid ethyl ester] | – |
| 0.36 ± 0.06 nM | 0.00019 ± 1e-05 µM | CCOC(=O)c1cnn(CC(O)CC)c1NC(=O)Nc1cccc(F)c1 (centres unmarked) [Im, 1-(2-hydroxybutyl)-5-[3-(3-fluorophenyl)ureido]-1H-pyrazole-4-carboxylic acid ethyl ester] | – |
| 0.0074 ± 0.0002 nM | – | CCOC(=O)c1cnn(CC(O)CC)c1NC(=O)NCc1ccccc1 (centres unmarked) [Ij, 1-(2-hydroxybutyl)-5-(3-benzylureido)-1H-pyrazole-4-carboxylic acid ethyl ester] | IC50 [2, 4]: > 10 µM; Percentage in brackets after the fMLP CI50 bound ([2]; fMLP-OMe 10^-9 M): 54% |
| – | 0.0098 ± 0.0009 µM | CCOC(=O)c1cnn(CC(C)O)c1NC(=O)Nc1cccc2ccccc12 (centres unmarked) [Ih, 1-(2-hydroxypropyl)-5-[3-(1-naphthyl)ureido]-1H-pyrazole-4-carboxylic acid ethyl ester] | – |
| 0.0032 ± 0.0001 nM | 0.00043 ± 5e-05 µM | CCCC(O)Cn1ncc(C(=O)OCC)c1NC(=O)NCc1ccccc1 (centres unmarked) [Iq, 1-(2-hydroxypentyl)-5-(3-benzylureido)-1H-pyrazole-4-carboxylic acid ethyl ester] | – |

Second part, the compound before the results:

| SMILES | IC50 ([1]; Homo sapiens, Neutrophil) | IC50 [2, 3] | other results |
| --- | --- | --- | --- |
| CCOC(=O)c1cnn(CC(O)c2ccccc2)c1NC(=O)Nc1cccc2ccccc12 (centres unmarked) [Ia, 1-(2-hydroxy-2-phenylethyl)-5-[3-(1-naphthyl)ureido]-1H-pyrazole-4-carboxylic acid ethyl ester] | 0.0076 ± 0.001 nM | 0.0078 ± 0.00052 µM | – |
| CCOC(=O)c1cnn(CC(C)O)c1NC(=O)NCc1ccccc1 (centres unmarked) [Ic, 1-(2-hydroxypropyl)-5-(3-benzylureido)-1H-pyrazole-4-carboxylic acid ethyl ester] | – | 0.015 ± 0.0011 µM | – |
| CCOC(=O)c1cnn(CC(C)O)c1NC(=O)NC(C)C (centres unmarked) [Ib, 1-(2-hydroxypropyl)-5-(3-isopropylureido)-1H-pyrazole-4-carboxylic acid ethyl ester] | – | 0.09 ± 0.0093 µM | – |
| CCOC(=O)c1cnn(CC(C)O)c1NC(=O)Nc1cccc(F)c1 (centres unmarked) [If, 1-(2-hydroxypropyl)-5-[3-(3-fluorophenyl)ureido]-1H-pyrazole-4-carboxylic acid ethyl ester] | – | – | IC50 [2, 4]: > 10 µM; Percentage in brackets after the fMLP CI50 bound ([2]; fMLP-OMe 10^-9 M): 60% |
| CCOC(=O)c1cnn(CC(C)O)c1NC(=O)Nc1ccc(F)cc1 (centres unmarked) [Ig, 1-(2-hydroxypropyl)-5-[3-(4-fluorophenyl)ureido]-1H-pyrazole-4-carboxylic acid ethyl ester] | 0.2 ± 0.06 nM | – | IC50 [2, 4]: > 10 µM; Percentage in brackets after the fMLP CI50 bound ([2]; fMLP-OMe 10^-9 M): 55% |
| CCOC(=O)c1cnn(CC(O)CC)c1NC(=O)NC(C)C (centres unmarked) [Ii, 1-(2hydroxybutyl)-5-(3-isopropylureido)-1H-pyrazole-4-carboxylic acid ethyl ester] | 0.0042 ± 0.0007 nM | – | IC50 [2, 4]: > 10 µM; Percentage in brackets after the fMLP CI50 bound ([2]; fMLP-OMe 10^-9 M): 52% |
| CCOC(=O)c1cnn(CC(O)CC)c1NC(=O)NN1CCN(Cc2ccccc2)CC1 (centres unmarked) [Ik, 1-(2-hydroxybutyl)-5-[3-(4-benzyl)piperazinylureido)-1H-pyrazole-4-carboxylic acid ethyl ester] | – | – | IC50 [2, 5]: 2 ± 0.2 µM |
| COC(=O)[C@H](Cc1ccccc1)NC(=O)[C@H](CC(C)C)NC(=O)[C@H](CCSC)NC=O [fMLP-OMe] | – | – | chemotactic index (C.I.) ([2]; chemoattractant alone at 10^-9): 1.2 |
| CCOC(=O)c1cnn(CC(C)O)c1NC(=O)NN1CCN(Cc2ccccc2)CC1 (centres unmarked) [Id, 1-(2-hydroxypropyl)-5-[3-(4-benzyl)piperazinylureido]-1H-pyrazole-4-carboxylic acid ethyl ester] | – | – | Percentage in brackets after the fMLP CI50 bound ([2]; fMLP-OMe 10^-9 M): 63%; IC50 ([2]; fMLP-OMe 10^-9 M, unit µM, highest tested concentration 10^-5 M): > 10 µM |
| CCCC(O)Cn1ncc(C(=O)OCC)c1NC(=O)NC(C)C (centres unmarked) [Ip, 1-(2-hydroxypentyl)-5-(3-isopropylureido)-1H-pyrazole-4-carboxylic acid ethyl ester] | 1 ± 0.05 nM | 0.02 ± 0.0022 µM | – |
| CCCC(O)Cn1ncc(C(=O)OCC)c1NC(=O)NN1CCN(Cc2ccccc2)CC1 (centres unmarked) [Ir, 1-(2-hydroxypentyl)-5-[3-(4-benzyl)piperazinylureido)-1H-pyrazole-4-carboxylic acid ethyl ester] | – | – | IC50 [1]: 0.09 ± 0.004 nM; IC50 [2, 5]: 0.0011 ± 0.0001 µM |
